In patent US20250090699A1, “FAP TARGETING CYCLIC PEPTIDES AND CONJUGATES THEREOF” (Novartis AG, priority 2023, published 2025):
Where a name gives a salt, the structure may show the parent alone. Starred links: 1 amine or outer side, 2 acyl side, 3 side chain; linkers in the order of their positions; H or OH if unused. Non-standard residues stand in square brackets, D forms with d. Residues, ends and D or L forms follow the SMILES beside them. Groups on a side chain read outwards from the residue. *: point of attachment. Phe(4-CH2NH2) = NCc1ccc(C[C@H](N)C(=O)O)cc1; Piperazinyl(4-CH2COOH) = O=C(O)CN1CCN(*)CC1; AEF = NCCOc1ccc(C[C@H](N)C(=O)O)cc1; NMeF = CN[C@@H](Cc1ccccc1)C(=O)O; Aoc(2) = CCCCCC[C@H](N)C(=O)O; Ahp(2) = CCCCC[C@H](N)C(=O)O; hSer = N[C@@H](CCO)C(=O)O; AEEA = NCCOCCOCC(=O)O; CO = O=C([*:1])[*:2]; Propyl = CCC*

Columns and labels:
human FAP [1] = target: T1, human FAP (Homo sapiens, UniProt Q12884); experiment: Enzymatic FAP competition assay (Z-Gly-Pro-AMC fluorescence), human FAP; assay type: biochemical; conditions: read-out: h. FAP, Enz., IC50
T1 construct: the biotinylated His, Avi tag, human FAP (26-760, FAP-H82Q6); His; Avi tag (biotinylated); purchased AcroBiosystems FAP-H82Q6
T1 sequence (Q12884 26-760): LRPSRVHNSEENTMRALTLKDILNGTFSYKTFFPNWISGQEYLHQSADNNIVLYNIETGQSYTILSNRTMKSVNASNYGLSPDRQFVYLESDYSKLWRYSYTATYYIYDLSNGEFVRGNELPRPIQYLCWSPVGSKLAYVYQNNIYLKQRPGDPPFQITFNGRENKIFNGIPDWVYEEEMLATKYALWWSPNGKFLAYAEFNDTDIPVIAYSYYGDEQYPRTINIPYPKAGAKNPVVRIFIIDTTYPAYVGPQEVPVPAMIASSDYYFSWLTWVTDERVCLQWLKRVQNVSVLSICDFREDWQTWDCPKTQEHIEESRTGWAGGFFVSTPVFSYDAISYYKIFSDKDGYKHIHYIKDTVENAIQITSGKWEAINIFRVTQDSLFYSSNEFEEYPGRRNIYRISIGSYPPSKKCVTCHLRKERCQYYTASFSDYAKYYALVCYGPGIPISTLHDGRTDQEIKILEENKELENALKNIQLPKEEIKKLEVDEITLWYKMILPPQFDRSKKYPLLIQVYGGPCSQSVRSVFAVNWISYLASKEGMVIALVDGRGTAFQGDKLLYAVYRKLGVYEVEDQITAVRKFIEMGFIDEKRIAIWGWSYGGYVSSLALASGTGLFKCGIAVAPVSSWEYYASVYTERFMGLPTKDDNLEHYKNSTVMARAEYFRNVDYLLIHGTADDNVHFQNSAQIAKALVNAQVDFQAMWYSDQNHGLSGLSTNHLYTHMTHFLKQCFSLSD
How it was run: (§1)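 Biotinylated His/Avi-tagged FAP ectodomain (human 26-760, mouse 26-761) at 0.01 nM, preincubated 24 h with peptides (14 concentrations, up to 1 μM) in pH 7.5 phosphate, 150 mM NaCl, 0.05% Tween20, 1% DMSO. Then 50 μM Z-Gly-Pro-AMC, 4 h at 22-24° C; AMC fluorescence (380/460 nm) gave IC50 from duplicate points.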

human FAP [2] = target: T1, human FAP; experiment: Surface plasmon resonance (SPR) for peptide affinity, human FAP; assay type: binding; conditions: read-out: h. FAP, SPR, KD
Experimental: Peptide affinities (KD) were determined by SPR using a Biacore™ 8K device (Cytiva) towards the following proteins: biotinylated His, Avi tag, human FAP (26-760, FAP-H82Q6), biotinylated His, Avi tag, mouse FAP (26-761, FAP-M82Q5), His tag, human DPP4 (34-766, DP4-H82E3), all purchased from AcroBiosystems and His tag, mouse DPP4 (29-760, 954-SE) from R&D Systems. The FAP proteins and their homologous were diluted to a concentration of 2 μg/mL into acetate buffer pH 5.5, then immobilized onto a CM5 sensorchip (Cytiva, BR-1005-30) to reach a response around 2000 R U. The running buffer HBS-EP+pH 7.6 (20× from Teknova CAT. No: H8022) contained 10 mM HEPES pH 7.6, 150 mM NaCl, 3 mM EDTA, 0.05% Tween20 and 2% DMSO. Experiments were carried out at 25° C. using a flow rate of 30 μL/min. Compounds were tested in single cycle kinetic mode at 8 different concentrations. Curve fitting was performed using the Biacore™ 8K evaluation software. The sensorgrams were fitted by applying a 1:1 binding model to calculate kinetic rate constants and equilibrium dissociation constants (KD).
For this assay, the setup had the same conditions (flow rate, running buffer, peptide dilution) as described above for the CM5 method. The oligo CAP reagent obtained in the CAPture Kit (Ref. 28920234) was 1/5 diluted into running buffer and used with a contact time of 300 s at a flow rate of 2 μL/min. The human and mouse FAP constructs described above were used (from AcroBiosystems or produced in house). The FAP proteins were diluted to a concentration of 2 μg/mL into acetate pH 5.5, 0.05% Tween20 and used with a contact time of 600 s at a flow rate of 10 μL/min. The peptides were tested with an association time of 280 s followed by a dissociation time of 3000 s at a flow rate of 30 μL/min. The regeneration was done using the regeneration solution (8 M guanidine-HCl, 1 M NaOH) as obtained with a contact time of 270 s at a flow rate of 10 μL/min. […] The compounds marked with an asterisk were tested against human and mouse DDP4.

mouse FAP [3] = target: T2, mouse FAP (Mus musculus, UniProt P97321); experiment: Surface plasmon resonance (SPR) for peptide affinity, mouse FAP; assay type: binding
T2 construct: biotinylated His, Avi tag, mouse FAP (26-761, FAP-M82Q5); His; Avi tag (biotinylated); purchased AcroBiosystems FAP-M82Q5
T2 sequence (P97321 26-761): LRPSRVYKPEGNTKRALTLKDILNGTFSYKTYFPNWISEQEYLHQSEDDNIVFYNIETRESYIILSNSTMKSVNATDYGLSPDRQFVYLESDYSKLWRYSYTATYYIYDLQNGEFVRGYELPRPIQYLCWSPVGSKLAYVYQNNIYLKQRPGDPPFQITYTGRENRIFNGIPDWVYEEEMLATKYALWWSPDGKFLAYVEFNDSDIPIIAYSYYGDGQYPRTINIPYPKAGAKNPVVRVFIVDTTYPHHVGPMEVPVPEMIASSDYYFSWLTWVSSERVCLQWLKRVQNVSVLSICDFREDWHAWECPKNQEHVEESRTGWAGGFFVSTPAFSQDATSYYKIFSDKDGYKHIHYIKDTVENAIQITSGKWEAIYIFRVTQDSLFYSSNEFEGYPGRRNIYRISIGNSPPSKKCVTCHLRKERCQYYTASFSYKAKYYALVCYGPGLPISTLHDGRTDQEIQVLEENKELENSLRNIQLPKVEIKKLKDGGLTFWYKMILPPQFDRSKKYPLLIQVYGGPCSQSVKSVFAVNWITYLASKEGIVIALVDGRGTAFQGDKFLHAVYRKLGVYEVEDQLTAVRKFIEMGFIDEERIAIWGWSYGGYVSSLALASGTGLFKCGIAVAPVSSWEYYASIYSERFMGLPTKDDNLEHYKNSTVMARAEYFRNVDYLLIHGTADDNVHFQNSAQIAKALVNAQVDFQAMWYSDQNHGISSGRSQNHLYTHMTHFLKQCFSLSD
How it was run: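 Biotinylated His/Avi-tagged FAP ectodomains (human 26-760, mouse 26-761) captured or immobilized on Biacore sensor chips; peptides run at 25 °C in HBS-EP+ pH 7.6 with 2% DMSO, single-cycle kinetics, 8 concentrations. KD from 1:1 binding-model fit of sensorgrams.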

mouse FAP [4] = target: T2, mouse FAP; experiment: Enzymatic FAP competition assay (Z-Gly-Pro-AMC fluorescence), mouse FAP; assay type: biochemical; conditions: read-out: m. FAP, Enz., IC50
How it was run: as §1

Row | Structure (SMILES) | IC50 (human FAP [1]) [pM] | Kd (human FAP [2]) [pM] | Kd (mouse FAP [3]) [pM] | IC50 (mouse FAP [4]) [pM]
1 | CCCCCC[C@@H]1NC(=O)[C@H](Cc2ccc(CNC(=O)COCCOCCN)cc2)NC(=O)[C@H](Cc2ccccc2)N(C)C(=O)CNC(=O)CNC(=O)[C@H]2CCCN2C(=O)[C@H](CC(=O)O)NC(=O)[C@H](CCCCNC(=O)N2CCN(CC(=O)O)CC2)NC(=O)CNC(=O)[C@H](Cc2c[nH]c3ccccc23)NC1=O [Example A1, 2-((9S,12S,15S,18S,24S,27S,32aR)-18-((1H-indol-3-yl)methyl)-12-(4-((2-(2-(2-aminoethoxy)ethoxy)acetamido)methyl)benzyl)-9-benzyl-24-(4-(4-(carboxymethyl)piperazine-1-carboxamido)butyl)-15-hexyl-8-methyl-1,4,7,10,13,16,19,22,25,28-decaoxodotriacontahydropyrrolo[1,2-a][1,4,7,10,13,16,19,22,25,28]decaazacyclotriacontin-27-yl)acetic acid TFA salt] (cyclo([Aoc(2)]WGK([CO-Piperazinyl(4-CH2COOH)])D[dP]GG[NMeF][Phe(4-CH2NH2)](AEEA))) | 9 | < 7 | < 18 | 28
2 | CCCOCC[C@@H]1NC(=O)[C@H](Cc2ccc(CNC(=O)COCCOCCN)cc2)NC(=O)[C@H](Cc2ccccc2)N(C)C(=O)CNC(=O)CNC(=O)[C@H]2CCCN2C(=O)[C@H](CC(=O)O)NC(=O)[C@H](CCCCNC(=O)N2CCN(CC(=O)O)CC2)NC(=O)CNC(=O)[C@H](Cc2c[nH]c3ccccc23)NC1=O [Example A2, 2-((9S,12S,15S,18S,24S,27S,32aR)-18-((1H-indol-3-yl)methyl)-12-(4-((2-(2-(2-aminoethoxy)ethoxy)acetamido)methyl)benzyl)-9-benzyl-24-(4-(4-(carboxymethyl)piperazine-1-carboxamido)butyl)-8-methyl-1,4,7,10,13,16,19,22,25,28-decaoxo-15-(2-propoxyethyl)dotriacontahydropyrrolo[1,2-a][1,4,7,10,13,16,19,22,25,28]decaazacyclotriacontin-27-yl)acetic acid TFA salt] (cyclo(D[dP]GG[NMeF][Phe(4-CH2NH2)](AEEA)[hSer](Propyl)WGK([CO-Piperazinyl(4-CH2COOH)]))) | 12 | < 11 | < 23 | 47
3 | CCCCC[C@@H]1NC(=O)[C@H](Cc2ccc(O)cc2)NC(=O)[C@H](Cc2ccccc2)N(C)C(=O)CNC(=O)CNC(=O)[C@H]2CCCN2C(=O)[C@H](CC(=O)O)NC(=O)[C@H](Cc2ccc(OC)cc2)NC(=O)CNC(=O)[C@H](Cc2c[nH]c3ccccc23)NC1=O [Example A13, Gly-Gly-NMePhe-Tyr-Ahp-Trp-Gly-F(4OMe)-Asp-D-Pro] (cyclo([Ahp(2)]WGY(Me)D[dP]GG[NMeF]Y)) | 5 | < 5 | 11 | 11
4 | CCCCC[C@@H]1NC(=O)[C@H](Cc2ccc(OCCN)cc2)NC(=O)[C@H](Cc2ccccc2)N(C)C(=O)CNC(=O)[C@@H]2CCCN2C(=O)[C@H]2CCCN2C(=O)[C@H](CC(=O)O)NC(=O)[C@H](Cc2ccc(O)cc2)NC(=O)CNC(=O)[C@H](Cc2c[nH]c3ccccc23)NC1=O [Example A32, Pro-Gly-NMePhe-F(4OEtNH2)-Ahp-Trp-Gly-Tyr-Asp-D-Pro] (cyclo(G[NMeF][AEF][Ahp(2)]WGYD[dP]P)) | 239 | 270 | 550 | 1200
